# Assay results from patent publication US9067943B2, “[1,2,3]triazolo[4,5-D]pyrimidine derivatives” (priority 2011, dated 2015).
# Read-outs that look alike come from different tables or passages of the source.
# Tests used:
# human CB1 receptors = target: T1, human CB1 receptors (Homo sapiens, UniProt P21554); experiment: cAMP assay; assay type: cell-based
# T1 construct: expressed in transfected cells; host or cells: CHO cells
# Procedure: (§1) CHO cells expressing human CB1 or CB2 receptors are seeded 17-24 hours prior to the experiment 50.000 cells per well in a black 96 well plate with flat clear bottom (Corning Costar #3904) in DMEM (Invitrogen No. 31331), 1×HT supplement, with 10% fetal calf serum and incubated at 5% CO2 and 37° C. in a humidified incubator. The growth medium was exchanged with Krebs Ringer Bicarbonate buffer with 1 mM IBMX and incubated at 30° C. for 30 min. Compounds were added to a final assay volume of 100 μl and incubated for 30 min at 30° C. Using the cAMP-Nano-TRF detection kit the assay (Roche Diagnostics) was stopped by the addition of 50 μl lysis reagent (Tris, NaCl, 1.5% Triton X100, 2.5% NP40, 10% NaN3) and 50 μl detection solutions (20 μM mAb Alexa700-cAMP 1:1, and 48 μM Ruthenium-2-AHA-cAMP) and shaken for 2 h at room temperature. The time-resolved energy transfer is measured by a TRF reader (Evotec Technologies GmbH), equipped with a ND:YAG laser as excitation source. The plate is measured twice with the excitation at 355 nm and at the emission with a delay of 100 ns and a gate of 100 ns, total exposure time 10 s at 730 (bandwidth 30 nm) or 645 nm (bandwidth 75 nm), respectively. The FRET signal is calculated as follows: FRET=T730-Alexa730-P(T645-B645) with P=Ru730-B730/Ru645-B645, where T730 is the test well measured at 730 nM, T645 is the test well measured at 645 nm, B730 and B645 are the buffer controls at 730 nm and 645 nm, respectively. cAMP content is determined from the function of a standard curve spanning from 10 μM to 0.1 nM cAMP.
# (§2) EC50 values were determined using Activity Base analysis (ID Business Solution, Limited). The EC50 values for a wide range of cannabinoid agonists generated from this assay were in agreement with the values published in the scientific literature.
# human CB2 receptors = target: T2, human CB2 receptors (Homo sapiens, UniProt P34972); experiment: cAMP assay; assay type: cell-based
# T2 construct: expressed in transfected cells; host or cells: CHO cells
# T2 sequence (P34972 whole entry): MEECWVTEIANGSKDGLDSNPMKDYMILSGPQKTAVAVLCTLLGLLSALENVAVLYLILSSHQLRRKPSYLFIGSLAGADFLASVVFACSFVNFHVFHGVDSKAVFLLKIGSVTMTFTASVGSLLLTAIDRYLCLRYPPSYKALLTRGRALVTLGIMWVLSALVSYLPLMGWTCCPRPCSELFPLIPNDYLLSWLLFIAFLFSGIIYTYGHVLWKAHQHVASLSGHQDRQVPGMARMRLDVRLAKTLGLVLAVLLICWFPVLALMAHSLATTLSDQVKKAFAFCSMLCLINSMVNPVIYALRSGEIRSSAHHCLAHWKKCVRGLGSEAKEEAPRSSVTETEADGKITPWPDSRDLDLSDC
# Procedure: as §1, §2
# [1] = functional cAMP assay, CHO cells expressing human CB2, read-out: human CB2 EC50
# T1 sequence (P21554 whole entry): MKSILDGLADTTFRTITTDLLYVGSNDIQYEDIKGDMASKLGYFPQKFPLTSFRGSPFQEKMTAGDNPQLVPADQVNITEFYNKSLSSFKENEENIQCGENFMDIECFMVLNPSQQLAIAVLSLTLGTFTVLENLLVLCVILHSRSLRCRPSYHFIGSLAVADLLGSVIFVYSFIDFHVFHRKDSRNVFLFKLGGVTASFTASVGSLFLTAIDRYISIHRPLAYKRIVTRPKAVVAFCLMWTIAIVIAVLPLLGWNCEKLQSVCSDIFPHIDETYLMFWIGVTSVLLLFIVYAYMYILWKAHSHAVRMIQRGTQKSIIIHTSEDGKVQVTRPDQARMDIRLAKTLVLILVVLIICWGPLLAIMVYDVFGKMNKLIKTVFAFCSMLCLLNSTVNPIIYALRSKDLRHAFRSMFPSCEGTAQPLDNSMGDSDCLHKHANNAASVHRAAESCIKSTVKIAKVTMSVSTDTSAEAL
SMILES,EC50 (human CB1 receptors) [µM],EC50 (human CB2 receptors) [nM],EC50 (human CB2 receptors; [1]) [nM]
"CC(C)(C)c1nc(N2CC[C@](C)(O)C2)c2nn(Cc3ccccc3C(F)(F)F)nc2n1 [Example 125-a, (S)-1-[5-tert-Butyl-2-(2-trifluoromethyl-benzyl)-2H-[1,2,3]triazolo[4,5-d]pyrimidin-7-yl]-3-methyl-pyrrolidin-3-ol]",0.398,0.4,
"Cc1noc(Cn2nc3nc(C(C)(C)C)nc(N4CC[C@@](C)(O)C4)c3n2)n1 [Example 129-b, (R)-1-[5-tert-Butyl-2-(3-methyl-[1,2,4]oxadiazol-5-ylmethyl)-2H-[1,2,3]triazolo[4,5-d]pyrimidin-7-yl]-3-methyl-pyrrolidin-3-ol]",> 10,,316
"CC(C)(C)c1nc(N2CCC(F)(F)C2)c2nn(Cc3cc(F)ccc3Cl)nc2n1 [Example 31, 5-tert-Butyl-2-(2-chloro-5-fluoro-benzyl)-7-(3,3-difluoro-pyrrolidin-1-yl)-2H-[1,2,3]triazolo[4,5-d]pyrimidine]",,0.5,
"CC(C)(C)c1nc(N2CC3(COC3)C2)c2nn(Cc3ncccc3Cl)nc2n1 [Example 108, 5-tert-Butyl-2-(3-chloro-pyridin-2-ylmethyl)-7-(2-oxa-6-aza-spiro[3.3]hept-6-yl)-2H-[1,2,3]triazolo[4,5-d]pyrimidine]",0.362,5.2,
"C[C@H](Oc1nc(N2CCC(F)(F)C2)c2nn(Cc3ncccc3Cl)nc2n1)C(F)(F)F [Example 117, 2-(3-Chloro-pyridin-2-ylmethyl)-7-(3,3-difluoro-pyrrolidin-1-yl)-5-((S)-2,2,2-trifluoro-1-methyl-ethoxy)-2H-[1,2,3]triazolo[4,5-d]pyrimidine]",> 10,21.2,
"Cc1nnc(Cn2nc3nc(C(C)(C)C)nc(N4CCC(F)(F)C4)c3n2)o1 [Example 65, 5-tert-Butyl-7-(3,3-difluoro-pyrrolidin-1-yl)-2-(5-methyl-[1,3,4]oxadiazol-2-ylmethyl)-2H-[1,2,3]triazolo[4,5-d]pyrimidine]",> 10,18.6,
"Cn1nnnc1Cn1nc2nc(C(C)(C)C)nc(N3CC[C@](C)(O)C3)c2n1 [Example 130-a, (S)-1-[5-tert-Butyl-2-(1-methyl-1H-tetrazol-5-ylmethyl)-2H-[1,2,3]triazolo[4,5-d]pyrimidin-7-yl]-3-methyl-pyrrolidin-3-ol]",> 10,,172
"CC(C)(C)c1nc(N2CCC(F)(F)C2)c2nn(CCO)nc2n1 [Example 5, 2-[5-tert-Butyl-7-(3,3-difluoro-pyrrolidin-1-yl)-[1,2,3]triazolo[4,5-d]pyrimidin-2-yl]-ethanol]",> 10,64.7,
"CC(C)(C)c1nc(N2CCC(F)(F)C2)c2nn(Cc3nnnn3C3CC3)nc2n1 [Example 92, 5-tert-Butyl-2-(1-cyclopropyl-1H-tetrazol-5-ylmethyl)-7-(3,3-difluoro-pyrrolidin-1-yl)-2H-[1,2,3]triazolo[4,5-d]pyrimidine]",1.58,5,
"CC1(Cn2nc3nc(C(C)(C)C)nc(N4CCC(F)(F)C4)c3n2)COC1 [Example 51, 5-tert-Butyl-7-(3,3-difluoro-pyrrolidin-1-yl)-2-(3-methyl-oxetan-3-ylmethyl)-2H-[1,2,3]triazolo[4,5-d]pyrimidine]",> 10,0.9,
"CC(C)(C)c1nc(N2CC[C@@](C)(O)C2)c2nn(Cc3ccccc3S(C)(=O)=O)nc2n1 [Example 126-b, (R)-1-[5-tert-Butyl-2-(2-methanesulfonyl-benzyl)-2H-[1,2,3]triazolo[4,5-d]pyrimidin-7-yl]-3-methyl-pyrrolidin-3-ol]",> 10,24,
"CC(C)(C)Nc1nc(N2CCC(F)(F)C2)c2nn(Cc3ccccc3C(F)(F)F)nc2n1 [Example 136, tert-Butyl-[7-(3,3-difluoro-pyrrolidin-1-yl)-2-(2-trifluoromethyl-benzyl)-2H-[1,2,3]triazolo[4,5-d]pyrimidin-5-yl]-amine]",> 10,35,
"CC(C)(C)c1nc(N2CC[C@](C)(O)C2)c2nn(Cc3ccccc3S(C)(=O)=O)nc2n1 [Example 126-a, (S)-1-[5-tert-Butyl-2-(2-methanesulfonyl-benzyl)-2H-[1,2,3]triazolo[4,5-d]pyrimidin-7-yl]-3-methyl-pyrrolidin-3-ol]",> 10,10.6,
"CC(C)(C)c1nc(N2CCC(F)(F)C2)c2nn(Cc3c(Cl)ccc(F)c3Cl)nc2n1 [Example 33, 5-tert-Butyl-2-(2,6-dichloro-3-fluoro-benzyl)-7-(3,3-difluoro-pyrrolidin-1-yl)-2H-[1,2,3]triazolo[4,5-d]pyrimidine]",> 10,1.2,
"Cc1noc(Cn2nc3nc(C(C)(C)C)nc(N4CC(F)(F)C(F)(F)C4)c3n2)n1 [Example 100, 5-tert-Butyl-2-(3-methyl-[1,2,4]oxadiazol-5-ylmethyl)-7-(3,3,4,4-tetrafluoro-pyrrolidin-1-yl)-2H-[1,2,3]triazolo[4,5-d]pyrimidine]",> 10,4.6,
"Cn1nnnc1Cn1nc2nc(NC(C)(C)C)nc(N3CC[C@H](O)C3)c2n1 [Example 145, (S)-1-[5-tert-Butylamino-2-(1-methyl-1H-tetrazol-5-ylmethyl)-2H-[1,2,3]triazolo[4,5-d]pyrimidin-7-yl]-pyrrolidin-3-ol]",> 10,,1090
"CN(C)c1c(Cl)cncc1Cn1nc2nc(C(C)(C)C)nc(N3CCC(F)(F)C3)c2n1 [Example 71, {3-[5-tert-Butyl-7-(3,3-difluoro-pyrrolidin-1-yl)-[1,2,3]triazolo[4,5-d]pyrimidin-2-ylmethyl]-5-chloro-pyridin-4-yl}-dimethyl-amine]",0.105,1.4,
"Cc1noc(Cn2nc3nc(C(C)(C)C)nc(N4CC[C@H](O)C4)c3n2)n1 [Example 74, (S)-1-[5-tert-Butyl-2-(3-methyl-[1,2,4]oxadiazol-5-ylmethyl)-2H-[1,2,3]triazolo[4,5-d]pyrimidin-7-yl]-pyrrolidin-3-ol]",> 10,61.3,
"Cc1nc(Cn2nc3nc(C(C)(C)C)nc(N4CC[C@H](O)C4)c3n2)n(C)n1 [Example 95, (S)-1-[5-tert-Butyl-2-(2,5-dimethyl-2H-[1,2,4]triazol-3-ylmethyl)-2H-[1,2,3]triazolo[4,5-d]pyrimidin-7-yl]-pyrrolidin-3-ol]",> 10,,257
"CC(C)(C)c1nc(N2CC[C@](C)(O)C2)c2nn(CCC(F)(F)F)nc2n1 [Example 132-a, (S)-1-[5-tert-Butyl-2-(3,3,3-trifluoro-propyl)-2H-[1,2,3]triazolo[4,5-d]pyrimidin-7-yl]-3-methyl-pyrrolidin-3-ol]",> 10,18.1,
"CC(C)(C)c1nc(N2CCC(F)(F)C2)c2nn(Cc3ccncc3Cl)nc2n1 [Example 66, 5-tert-Butyl-2-(3-chloro-pyridin-4-ylmethyl)-7-(3,3-difluoro-pyrrolidin-1-yl)-2H-[1,2,3]triazolo[4,5-d]pyrimidine]",0.234,0.4,
"CC(C)(C)c1nc(N2CCC(F)(F)C2)c2nn(Cc3ccccc3Br)nc2n1 [Example 21, 2-(2-Bromo-benzyl)-5-tert-butyl-7-(3,3-difluoro-pyrrolidin-1-yl)-2H-[1,2,3]triazolo[4,5-d]pyrimidine]",0.183,0.1,
"CC(=O)N[C@H]1CCN(c2nc(O[C@@H](C)C(F)(F)F)nc3nn(Cc4ccccc4Cl)nc23)C1 [Example 141, N—{(S)-1-[2-(2-Chloro-benzyl)-5-((S)-2,2,2-trifluoro-1-methyl-ethoxy)-2H-[1,2,3]triazolo[4,5-d]pyrimidin-7-yl]-pyrrolidin-3-yl}-acetamide]",> 10,,1150
"CC(C)(C)c1nc(N2CCC(F)(F)C2)c2nn(Cc3ccccc3S(C)(=O)=O)nc2n1 [Example 49, 5-tert-Butyl-7-(3,3-difluoro-pyrrolidin-1-yl)-2-(2-methanesulfonyl-benzyl)-2H-[1,2,3]triazolo[4,5-d]pyrimidine]",0.15,0.4,
"CC(C)(C)c1nc(N2CCC(F)(F)C2)c2nn(CC3CCCCC3)nc2n1 [Example 6, 5-tert-Butyl-2-cyclohexylmethyl-7-(3,3-difluoro-pyrrolidin-1-yl)-2H-[1,2,3]triazolo[4,5-d]pyrimidine]",0.306,0.5,
"CC(C)(C)c1nc(N2CCC(F)(F)C2)c2nn(C3COC3)nc2n1 [Example 32, 5-tert-Butyl-7-(3,3-difluoro-pyrrolidin-1-yl)-2-oxetan-3-yl-2H-[1,2,3]triazolo[4,5-d]pyrimidine]",,19,
"CC(C)(C)c1nc(N2CCC(F)(F)C2)c2nn(Cc3cccc(F)c3Cl)nc2n1 [Example 30, 5-tert-Butyl-2-(2-chloro-3-fluoro-benzyl)-7-(3,3-difluoro-pyrrolidin-1-yl)-2H-[1,2,3]triazolo[4,5-d]pyrimidine]",,0.7,
